# Assay results published in patent US20160296506A1, “Methods and Compositions for Treating HIV Infection” (priority 2012, published 2016).
# Key:
# [1] = system: carbamoyl-phosphate synthetase 2, aspartate transcarbamylase, and dihydroorotase (CAD); assay: CAD activity (phosphorylation at S1859) in IL-2/PHA-stimulated CD4 T cells; format: cell-based
# Description: (§1) PLD inhibitors modulate intracellular deoxyribonucleotides levels. […] CD4 T-cells experiments were performed with ani-CD3/CD28-currently completing experiments with IL-2/phytohaemagglutinin (PHA)-stimulated CD4 T cells.
# THP-1 cells = assay: dNTP levels in THP-1 cells (HPLC-MS); format: cell-based; details: statement
# Description: Briefly, Undifferentiated THP-1 cells (5×10̂6 cells/well) were treated with various inhibitors (10 μM EVJ, 10 μM JWJ, 100 nM rapamycin, 250 nM torin1, or 1 μM Go6976) for 16 h before harvest and extraction for HPLC-MS analysis of dNTP levels. Data represents analysis of triplicate samples.
# Briefly, THP-1 cells (2.5×10^5 cells in 0.5 mL of c-RPMI (5×10^5/mL)/well) were seeded into 24-well plates and differentiated with 0.1 μM PMA for 24 h. Cells were then pretreated for 4 h with inhibitors (10 μM EVJ, 10 μM JWJ, 100 nM rapamycin, 250 nM torin1, or 10 μM concentration of two AKT inhibitors for comparison). Cells were then infected with HIV-1-GFP in the continued presence of inhibitors. Levels of infection were determined by flow cytometry (BD Biosciences FACSCalibur) 72 h post-infection. […] This difference is likely due to an increase in PLD1 activity in PMA-treated THP-1 cells.
# HIV-1 [2] = assay: HIV-1 infection in PMA-stimulated THP-1 cells (flow cytometry); format: cell-based; details: 10 μM, 4 h pretreatment, HIV-1-GFP, 72 h post-infection, FIG. 10
# HIV-1 [3] = assay: HIV-1 replication in activated primary CD4+ T cells; format: cell-based, human; details: 10 μM, PHA/IL2 activated after EVJ treatment, FIG. 14
# IV pharmacokinetics = format: in vivo, mice; details: dose 1 mg/kg; for half-life / Vd: mouse, plasma; for Vd: read-out: Vdss
# [4] = PO plasma and brain levels; format: in vivo, mice; details: dose 10 mg/kg
# Description: The pharmacokinetic behavior of a representative disclosed PLD inhibitor of the present invention was assessed following […]. Briefly, mice were administered a single dose of a representative PLD inhibitor, either VUO364739 or VU359595 (10 mg/kg) by either intravenous injection or by oral administration. Plasma samples and tissue samples (brain) were isolated at various time points following euthanizing animal. The samples were flash frozen and stored at −80° C. Analysis was carried out by LC-MS/MS following extraction.
# primary T-cells = assay: dNTP increases in stimulated primary CD4 T-cells; format: cell-based, human; details: FIG. 14
# Description: as §1
# U87MG cells = assay: SILAC proteomic analysis on U87MG cells; format: cell-based; details: EVJ on U87MG cells, FIG. 12
# Description: A SILAC proteomic analysis was conducted using the PLD1-preferring inhibitor EVJ on U87MG cells.
# Plasma protein binding = format: in vitro ADME
# CAD = assay: dNTP levels with CAD overexpression; format: cell-based; details: FIG. 13
# HIV-1 [5] = assay: HIV-1 infection of U87.CD4.CXCR4 cells; format: cell-based; details: data not shown
smiles,measurement,setting,value
NC(=O)NO [Hydroxyurea],"activity of CAD, phosphorylation at activation residue S1859",[1],comparative modest effects
CCC(=O)N1CCN(c2ccc(-n3c(=O)ccc4cnc5ccc(-c6cnc7ccccc7c6)cc5c43)cc2C(F)(F)F)CC1 [Torin1],"activity of CAD, phosphorylation at activation residue S1859",[1],suppress activity
same,Deoxyribonucleotide (dNTP) levels,THP-1 cells,potently reduced
"C[C@@H](CN1CCC(n2c(=O)[nH]c3cc(Br)ccc32)CC1)NC(=O)[C@@H]1C[C@@H]1c1ccccc1 [No. 2, (1R,2S)-N-((S)-1-(4-(5-bromo-2-oxo-2,3-dihydro-1H-benzo[d]imidazol-1-yl)piperidin-1-yl)propan-2-yl)-2-phenylcyclopropane carboxamide]","HIV-1 replication in THP-1 cells, undifferentiated vs PMA-differentiated",HIV-1 [2],more robust effect on HIV-1 replication in PMA-differentiated THP-1 cells
same,"activity of CAD, phosphorylation at activation residue S1859",[1],suppress activity
same,HIV-1 replication in activated primary CD4+ T cells,HIV-1 [3],inhibits HIV-1 replication
same,CI,IV pharmacokinetics,61.5 mL/min/kg
same,half-life,IV pharmacokinetics,1.52 h
same,Vd,IV pharmacokinetics,8.1 L/kg
same,Brain,[4],29 ng/kg
same,Plasma,[4],39.9 ng/kg
same,Kp,"[4]; mouse, brain/plasma",0.73
same,dNTP increases in CD4-receptor stimulated primary T-cells from human donors,primary T-cells,blunt dNTP increases
same,signaling pathway changed (network analysis),U87MG cells,mTORC1 signaling is the predominant signaling pathway changed
same,Plasma Protein Binding (% bound),Plasma protein binding,97.9 % bound
same,dNTP levels upon CAD over expression,CAD,partially rescues the dNTP biosynthetic phenotype
same,HIV-1 infection of U87.CD4.CXCR4 cells,HIV-1 [5],inhibit HIV-1 infection
CNC(=O)c1cccc(-c2ccc3c(N4CCOC[C@@H]4C)nc(N4CCOC[C@@H]4C)nc3n2)c1 [AZD2014],"activity of CAD, phosphorylation at activation residue S1859",[1],suppress activity
"O=C(NCCN1CCC2(CC1)C(=O)NCN2c1cccc(F)c1)c1ccc2ccccc2c1 [No. 1, N-(2-(1-(3-fluorophenyl)-4-oxo-1,3,8-triazaspiro [4.5]decan-8-yl)ethyl)-2-naphthamide]","HIV-1 replication in THP-1 cells, undifferentiated vs PMA-differentiated",HIV-1 [2],inhibits HIV-1 replication under both conditions
same,CI,IV pharmacokinetics,60.7 mL/min/kg
same,half-life,IV pharmacokinetics,0.78 h
same,Vd,IV pharmacokinetics,4.7 L/kg
same,Brain (ng/kg),[4],BLQ
same,Brain: Plasma,[4],BLQ
same,Plasma,[4],29 ng/kg
same,Plasma Protein Binding (% bound),Plasma protein binding,98.1 % bound
same,HIV-1 infection of U87.CD4.CXCR4 cells,HIV-1 [5],inhibit HIV-1 infection
"NC1(c2ccc(-c3nc4ccn5c(=O)[nH]nc5c4cc3-c3ccccc3)cc2)CCC1 [MK2206, reference compound]",Deoxyribonucleotide (dNTP) levels,THP-1 cells,potently reduced
same,dNTP levels upon CAD over expression,CAD,continues to block dNTP levels
